The values that follow come from patent US20260265247A1, “MULTI-KINASE INHIBITORS, COMPOSITIONS THEREOF, AND METHODS OF USING THE SAME” (BIOFRONT LTD, priority 2022, published 2026).

Format in all cases: biochemical
One test addresses T1, HPK1 (Homo sapiens, UniProt Q92918).
T1 construct: purchased Signal Chem M23-11G-10
T1 sequence (Q92918 1-346 limits assumed): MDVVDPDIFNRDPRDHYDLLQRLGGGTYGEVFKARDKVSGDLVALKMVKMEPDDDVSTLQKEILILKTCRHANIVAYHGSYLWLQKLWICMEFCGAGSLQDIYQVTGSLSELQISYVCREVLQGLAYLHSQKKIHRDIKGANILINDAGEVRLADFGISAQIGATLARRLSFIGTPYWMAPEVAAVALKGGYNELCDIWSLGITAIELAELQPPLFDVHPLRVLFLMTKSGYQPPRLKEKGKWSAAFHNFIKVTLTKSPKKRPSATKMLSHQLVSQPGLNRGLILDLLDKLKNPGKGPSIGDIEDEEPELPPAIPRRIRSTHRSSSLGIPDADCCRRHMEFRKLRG
Description: HPK1 Enzymatic Assay (ADP-Glo). The note with it: enzyme inhibition; MBP substrate, ATP 20 μM mixture. As for the experimental part:
The compound was dissolved in 100% DMSO at the concentration of 10 mM. The HPK1 protein was purchased from Signal Chem (M23-11G-10). 2.5 μL per well of 2× HPK1 protein was added to assay plate containing the test compound, centrifuged at 1500 rpm for 1 minute, and then incubated at 25° C. for 60 minutes. MBP protein was purchased from Signal Chem (M42-51N) and ATP was purchased from Promega (V9102). The two were added 2.5 μL per well mixture of 2× MBP (0.2 ug/ul) and ATP (20 μM), centrifuged at 1500 rpm for 1 minute, then incubated at 25° C. for 60 minutes. Then added 5 μL of ADP-Glo from Promega (V9102) to the assay plate and depleted the unconsumed ATP for 60 minutes. Then centrifuged at 1500 rpm for 1 minute and incubated at 25° C. for 60 minutes. Finally, 10 μL of the kinase assay reagent from Promega (V9102) was added to the assay plate to convert ADP to ATP, centrifuged at 1500 rpm for 1 minute, incubate at 25° C. for 40 minutes. After 40 minutes incubation, the fluorescence was determined. Based on the results, the IC50 value of the compound was calculated.
On the technique in general: ADP-Glo turns the ADP formed in a reaction into a luminescent signal.

A further test deals with T2, FLT3-ITD (Homo sapiens, UniProt P36888).
T2 sequence (P36888 1-993): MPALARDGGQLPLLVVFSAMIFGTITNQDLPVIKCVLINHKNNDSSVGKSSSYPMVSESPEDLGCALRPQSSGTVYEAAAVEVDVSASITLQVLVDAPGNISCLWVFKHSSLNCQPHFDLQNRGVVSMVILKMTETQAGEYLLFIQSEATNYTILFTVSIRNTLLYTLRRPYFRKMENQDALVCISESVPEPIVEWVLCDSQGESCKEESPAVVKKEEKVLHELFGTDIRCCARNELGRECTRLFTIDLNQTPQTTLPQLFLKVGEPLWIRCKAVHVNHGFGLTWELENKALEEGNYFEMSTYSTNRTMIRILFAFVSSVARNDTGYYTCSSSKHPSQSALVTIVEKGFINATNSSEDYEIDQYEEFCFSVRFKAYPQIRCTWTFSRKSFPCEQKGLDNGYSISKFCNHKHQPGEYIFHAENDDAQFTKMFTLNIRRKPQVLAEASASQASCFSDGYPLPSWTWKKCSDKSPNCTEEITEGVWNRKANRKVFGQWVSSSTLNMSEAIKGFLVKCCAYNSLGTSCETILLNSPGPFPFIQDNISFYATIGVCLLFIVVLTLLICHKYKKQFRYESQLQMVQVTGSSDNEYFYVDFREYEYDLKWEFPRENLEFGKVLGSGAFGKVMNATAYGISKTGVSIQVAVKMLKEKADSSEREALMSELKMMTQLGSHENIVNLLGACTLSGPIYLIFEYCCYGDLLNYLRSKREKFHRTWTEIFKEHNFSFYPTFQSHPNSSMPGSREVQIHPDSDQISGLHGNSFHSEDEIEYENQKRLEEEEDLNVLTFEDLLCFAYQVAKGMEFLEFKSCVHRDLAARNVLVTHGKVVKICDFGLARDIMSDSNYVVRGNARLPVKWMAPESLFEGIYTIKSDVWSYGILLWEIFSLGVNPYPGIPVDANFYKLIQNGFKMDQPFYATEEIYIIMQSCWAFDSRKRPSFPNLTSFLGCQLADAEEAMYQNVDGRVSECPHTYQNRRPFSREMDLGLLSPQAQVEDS
As to the kind of experiment: FLT3-ITD Enzymatic Assay. The note with it: enzyme inhibition; peptide 2 3 μM, ATP 97.2 μM. Here is the method:
The compound was dissolved in 100% DMSO at the concentration of 10 mM. The FLT3-ITD protein was purchased from Invitrogen (PV6191). 10 μL per well of 2.5× FLT3-ITD protein was added to assay plate containing the test compound, centrifuged at 1000 rpm for 1 minute, and then incubated at 25° C. for 10 minutes. Peptide 2 was purchased from GL Biochem (112394) and ATP was purchased from Promega (V9102). The two were added 15 μL per well mixture of 1.67× peptide 2 (final conc. is 3 μM) and ATP (final conc. is 97.2 μM), centrifuged at 1000 rpm for 1 minute, then incubated at 25° C. for 40 minutes. Then added 30 μL of stop buffer (100 mM HEPES pH7.5, 0.015% Brij-35, 0.2% Coating Reagent 3, 50 mM EDTA) to the assay plate and centrifuged at 1000 rpm for 1 minute. the product was determined. Based on the results, the IC50 value of the compound was calculated.

The target of a further test is T3, Aurora A (Homo sapiens, UniProt O14965).
T3 construct: purchased Carna 05-101
T3 sequence (O14965 1-403): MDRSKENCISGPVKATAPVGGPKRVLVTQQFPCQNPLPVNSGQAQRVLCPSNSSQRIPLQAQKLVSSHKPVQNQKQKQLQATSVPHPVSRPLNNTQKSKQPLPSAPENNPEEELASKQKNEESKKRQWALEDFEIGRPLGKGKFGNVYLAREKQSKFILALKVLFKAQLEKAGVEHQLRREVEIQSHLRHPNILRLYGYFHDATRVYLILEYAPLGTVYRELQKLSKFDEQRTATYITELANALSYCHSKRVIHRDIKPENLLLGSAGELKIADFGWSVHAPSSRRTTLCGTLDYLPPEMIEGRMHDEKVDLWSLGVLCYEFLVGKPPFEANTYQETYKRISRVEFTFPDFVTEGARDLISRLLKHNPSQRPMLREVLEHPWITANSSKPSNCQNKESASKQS
Description: Aurora A Enzymatic Assay. To be noted: enzyme inhibition; peptide 21 3 μM, ATP 14.58 μM. Here is the method: The compound was dissolved in 100% DMSO at the concentration of 10 mM. The Aurora A protein was purchased from Carna (05-101). 10 μL per well of 2.5× Aurora A protein was added to assay plate containing the test compound, centrifuged at 1000 rpm for 1 minute, and then incubated at 25° C. for 10 minutes. Peptide 21 was purchased from GL Biochem (116370) and ATP was purchased from Promega (V9102). The two were added 15 μL per well mixture of 1.67× peptide 21 (final conc. is 3 μM) and ATP (final conc. is 14.58 μM), centrifuged at 1000 rpm for 1 minute, then incubated at 25° C. for 40 minutes. Then added 30 μL of stop buffer (100 mM HEPES pH7.5, 0.015% Brij-35, 0.2% Coating Reagent 3, 50 mM EDTA) to the assay plate and centrifuged at 1000 rpm for 1 minute. the product was determined. Based on the results, the IC50 value of the compound was calculated.

For `CCc1c[nH]c2ncc(-c3cccc(-n4cn[nH]c4=O)c3)c(Cl)c12` [Compound 1, 4-(3-(4-chloro-3-ethyl-1H-pyrrolo[2,3-b]pyridin-5-yl)phenyl)-2,4-dihydro-3H-1,2,4-triazol-3-one], the IC50 was 20.6 nM on HPK1, 37.8 nM against FLT3-ITD and 35.8 nM on Aurora A.

`O=c1[nH]ncn1-c1cccc(-c2cnc3[nH]cc(C4CC4)c3c2Cl)c1` [Compound 2, 4-(3-(4-chloro-3-cyclopropyl-1H-pyrrolo[2,3-b]pyridin-5-yl)phenyl)-2,4-dihydro-3H-1,2,4-triazol-3-one]: the values for the IC50 at HPK1, on FLT3-ITD and at Aurora A were 18.2 nM, 23.7 nM and 53.6 nM, respectively.

Consider `CCc1c[nH]c2ncc(-c3cccc(N4CCNC4=O)c3)c(Cl)c12` [Compound 3], for which the IC50 on HPK1 was 25.7 nM; against FLT3-ITD, 22.5 nM; at Aurora A it was 13.3 nM.

On to `O=C1NCCN1c1cccc(-c2cnc3[nH]cc(C4CC4)c3c2Cl)c1` [Compound 4], for which the IC50 stood at 27.6 nM at HPK1, 14.6 nM on FLT3-ITD and 22.9 nM at Aurora A.

With `O=C1NCCCN1c1nc(-c2cnc3[nH]cc(C4CC4)c3c2Cl)cs1` [Compound 5], the concentration for half-maximal inhibition (IC50) on HPK1 was 18.9 nM; against FLT3-ITD, 2.2 nM; against Aurora A, 3.1 nM.

As to `O=C1NCCN1c1cccc(-c2cnc3[nH]cc(C4CC4)c3c2Cl)n1` [Compound 6, 1-(6-(4-chloro-3-cyclopropyl-1H-pyrrolo[2,3-b]pyridin-5-yl)pyridin-2-yl) imidazolidin-2-one], the IC50 at HPK1 turned out to be 14.3 nM; on FLT3-ITD, 6.1 nM; against Aurora A it was 9.5 nM.

Turning to `Cc1sc(N2CCCNC2=O)nc1-c1cnc2[nH]cc(C3CC3)c2c1Cl` [Compound 7, 1-(4-(4-chloro-3-cyclopropyl-1H-pyrrolo[2,3-b]pyridin-5-yl)-5-methylthiazol-2-yl)tetrahydropyrimidin-2(1H)-one], the IC50 was 126 nM on HPK1, 4.2 nM against FLT3-ITD and 93.7 nM at Aurora A.

Consider `O=C1NCCCN1c1cccc(-c2cnc3[nH]cc(C4CC4)c3c2Cl)n1` [Compound 8, 1-(6-(4-chloro-3-cyclopropyl-1H-pyrrolo[2,3-b]pyridin-5-yl)pyridin-2-yl)tetrahydropyrimidin-2(1H)-one], for which the IC50 on HPK1 stood at 2.4 nM; against FLT3-ITD, 6 nM; against Aurora A, 7.8 nM.

For `CCc1c[nH]c2ncc(-c3cccc(N4CCCNC4=O)c3)c(Cl)c12` [Compound 9], the IC50 at HPK1 came out at 2 nM; at FLT3-ITD, 0.8 nM; on Aurora A, 172 nM.

Take `O=C1NC2(CCNC2)C(=O)N1c1cccc(-c2cnc3[nH]cc(C4CC4)c3c2Cl)c1` (stereo not drawn) [Compound 10, 3-(3-(4-chloro-3-cyclopropyl-1H-pyrrolo[2,3-b]pyridin-5-yl)phenyl)-1,3,7-triazaspiro[4.4]nonane-2,4-dione]: the figures for the IC50 on HPK1, against FLT3-ITD and on Aurora A were 14.4 nM, 11.6 nM and 27.4 nM, respectively.

In the case of `O=C1NC2(CCNC2)CN1c1cccc(-c2cnc3[nH]cc(C4CC4)c3c2Cl)c1` (stereo not drawn) [Compound 11, 3-(3-(4-chloro-3-cyclopropyl-1H-pyrrolo[2,3-b]pyridin-5-yl)phenyl)-1,3,7-triazaspiro[4.4]nonan-2-one], the IC50 at HPK1 worked out at 15.7 nM; against FLT3-ITD, 22.3 nM; against Aurora A it was 34.3 nM.

For `CCN(C)C(=O)c1c[nH]c2ncc(-c3cccc(N4CCCNC4=O)c3)c(Cl)c12` [Compound 12, 4-Chloro-N-ethyl-N-methyl-5-(3-(2-oxotetrahydropyrimidin-1 (2H)-yl)phenyl)-1H-pyrrolo[2,3-b]pyridine-3-carboxamide], the results for the IC50 at HPK1, on FLT3-ITD and on Aurora A were greater than 1000 nM, greater than 990 nM and greater than 1000 nM, respectively.

As for `N#Cc1cc(-c2cnc3[nH]cc(C4CC4)c3c2Cl)cc(N2CCCNC2=O)c1` [Compound 13, 3-(4-chloro-3-cyclopropyl-1H-pyrrolo[2,3-b]pyridin-5-yl)-5-(2-oxotetrahydropyrimidin-1(2H)-yl)benzonitrile], the IC50 came out at 827 nM at HPK1, 93.6 nM against FLT3-ITD and 78.9 nM against Aurora A.

In the case of `CS(=O)(=O)c1ccc(-c2cnc3[nH]cc(C4CC4)c3c2Cl)cc1N1CCCNC1=O` [Compound 14, 1-(5-(4-chloro-3-cyclopropyl-1H-pyrrolo[2,3-b]pyridin-5-yl)-2-(methylsulfonyl)phenyl)tetrahydropyrimidin-2(1H)-one], the IC50 at HPK1 turned out to be 151 nM; on FLT3-ITD, 37.4 nM; against Aurora A, 7.1 nM.

What is called IC50 is the point on the concentration scale where inhibition reaches its midpoint.
